Measurements reported in patent US5726177A, “Indole-derived arylpiperazines as ligands for 5HT1 -like, 5HT1B and 5HT1D receptors” (Pierre Fabre Medicament, priority 1993, dated 1998).
Structures can show the parent of a compound that is named as a salt. Where two headings read alike, the source gives them in different places.

Key:
human 5HT1Da receptor = human 5HT1Da receptor (Homo sapiens, UniProt P28221); test: Binding to cloned human 5HT1Da receptor
Description: (§1) Human 5HT1Da and 5HT1Db receptors were cloned according to the sequences published by M. Hamblin and M. Metcalf, Mol. Pharmacol., 40, 143 (1991) and Weinshenk et al., Proc. Natl. Acad. Sci., 89, 3630 (1992).
(§2) The transient transfection and the stable transfection of the genes of these receptors was carried out in Cos-7 and CHO-K1 cell lines by using an electroporator.
(§3) The binding of the derivatives of the present invention with human 5HT1Da, 5HT1Db and 5HT1A receptors was studied according to the method described by P. Pauwels and C. Palmier (Neuropharmacology, 33, 67, 1994).
(§4) The incubation media for these binding measurements comprise 0.4 ml of cell membrane preparation, 0.05 ml of a tritiated ligand [[3H]-SCT (final concentration: 2 nM) for the 5HT1Da and 5HT1Db receptors and [3H]-80H-DPAT (final concentration: 1 nM) for the 5HT1A receptor] and 0.05 ml of the molecule to be tested (final concentrations from 0.1 nM to 1000 nM) or 10 μM (final concentration) of serotonin (5HT1Da and 5HT1Db) or 1 μM (final concentration) of spiroxatrin (5HT1A ).

human 5HT1Db receptor [1] = target: T1, human 5HT1Db receptor (Homo sapiens, UniProt P28222); test: cell-based
Description: as §1, §2
The inhibition of the formation of cyclic AMP (stimulated by forskolin) mediated by the human 5HT1Db receptor was studied in CHO-K1 cells transfected by the receptor according to the technique described previously for the 5HT1B receptor (P. Pauwels and C. Palmier, Neuropharmacology, 33, 67, 1994).

human 5HT1Db receptor [2] = target: T1, human 5HT1Db receptor; test: Binding to cloned human 5HT1Db receptor
Description: as §1, §2, §3, §4

human 5HT1A receptor = target: T2, human 5HT1A receptor (Homo sapiens, UniProt P08908); test: Binding to human 5HT1A receptor (HeLa HA7 cell line)
T2 sequence (P08908 1-422): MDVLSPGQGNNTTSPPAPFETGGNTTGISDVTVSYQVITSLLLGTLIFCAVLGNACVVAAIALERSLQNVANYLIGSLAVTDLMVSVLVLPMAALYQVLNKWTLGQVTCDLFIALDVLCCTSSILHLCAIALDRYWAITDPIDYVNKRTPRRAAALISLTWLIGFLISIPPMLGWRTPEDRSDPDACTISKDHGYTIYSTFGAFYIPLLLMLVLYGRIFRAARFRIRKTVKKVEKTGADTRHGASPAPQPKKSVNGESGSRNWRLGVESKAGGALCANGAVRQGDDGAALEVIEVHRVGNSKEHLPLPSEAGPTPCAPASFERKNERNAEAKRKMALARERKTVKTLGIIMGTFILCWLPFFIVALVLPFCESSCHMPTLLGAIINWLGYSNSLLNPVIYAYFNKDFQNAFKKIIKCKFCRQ
Description: The HeLa HA7 cell line expressing the 5HT1A human receptor was obtained from Tulco (Duke Univ., Durham, N.C., USA) and cultured according to the method of Fargin et al., J. Biol. Chem., 264, 14848 (1989).
as §3, §4

[3] = human cloned receptor, [3H] ligand 2 nM, read-out: Ki 5HT1Da
[4] = human 5HT1Db, CHO-K1 cells, read-out: EC50 (Inhibition of the 5HT1Db cyclase stimulated by forskolin)
[5] = human cloned receptor, [3H] ligand 2 nM, read-out: Ki 5HT1Db
[6] = HeLa HA7 cells, [3H]-DPAT ligand 1 nM, read-out: Ki 5HT1A

Chain of human 5HT1Da receptor (P28221 whole entry): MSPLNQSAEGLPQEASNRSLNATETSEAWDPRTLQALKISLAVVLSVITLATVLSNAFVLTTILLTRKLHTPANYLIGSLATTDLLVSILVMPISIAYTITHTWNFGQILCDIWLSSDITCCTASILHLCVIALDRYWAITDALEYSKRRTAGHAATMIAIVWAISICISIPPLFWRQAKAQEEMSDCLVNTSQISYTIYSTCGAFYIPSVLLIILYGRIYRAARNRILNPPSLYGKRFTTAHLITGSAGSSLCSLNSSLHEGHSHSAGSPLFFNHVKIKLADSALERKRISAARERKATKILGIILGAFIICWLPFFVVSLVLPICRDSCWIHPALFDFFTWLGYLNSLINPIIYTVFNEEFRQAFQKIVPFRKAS
T1 sequence (P28222 whole entry): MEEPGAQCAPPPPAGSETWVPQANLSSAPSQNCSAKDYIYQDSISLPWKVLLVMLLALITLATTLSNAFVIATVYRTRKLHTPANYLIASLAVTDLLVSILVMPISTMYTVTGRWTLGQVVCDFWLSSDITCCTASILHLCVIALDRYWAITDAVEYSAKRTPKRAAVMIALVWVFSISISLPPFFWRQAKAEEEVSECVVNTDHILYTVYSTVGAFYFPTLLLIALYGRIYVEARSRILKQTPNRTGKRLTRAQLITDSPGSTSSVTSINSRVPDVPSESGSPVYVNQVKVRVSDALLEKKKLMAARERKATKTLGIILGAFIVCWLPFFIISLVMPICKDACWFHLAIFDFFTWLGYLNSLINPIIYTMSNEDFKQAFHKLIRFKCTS

SMILES | Ki (human 5HT1Da receptor; [3]) [nM] | EC50 (human 5HT1Db receptor [1]; [4]) [nM] | Ki (human 5HT1Db receptor [2]; [5]) [nM] | Ki (human 5HT1A receptor; [6]) [nM] | Ki (human 5HT1Da receptor) [nM] | EC50 (human 5HT1Db receptor [1]) [nM] | Ki (human 5HT1Db receptor [2]) [nM] | Ki (human 5HT1A receptor) [nM]
CS(=O)(=O)Nc1ccc(N2CCN(CCOc3ccc4[nH]cc(CCN)c4c3)CC2)cc1 [Example 41, N-[4-(4-{2-[3-(2-Aminoethyl)-1H-indol-5-yloxy]ethyl}piperazin-1-yl)phenyl]methanesulfonamide hydrochloride] | 1.1 | 2.6 | 0.7 | 28 | – | – | – | –
NCCc1c[nH]c2ccc(OCC(=O)N3CCN(c4ccc(NS(=O)(=O)c5ccc([N+](=O)[O-])cc5)cc4)CC3)cc12 [Example 26, N-[4-(4-{2-[3-(2-Aminoethyl)-1H-indol-5-yloxy]acetyl}piperazin-1-yl)phenyl]-4-nitrophenylsulfonamide hydrochloride] | 0.25 | 6.5 | 0.5 | 16.5 | – | – | – | –
NCCc1c[nH]c2ccc(OCC(=O)N3CCN(c4ccc(NC(=O)Oc5ccccc5)cc4)CC3)cc12 [Example 33, N-[4-(4-{2-[3-(2-Aminoethyl)-1H-indol-5-yloxy]acetyl}-piperazin-1-yl)phenyl]phenylcarbamate] | – | – | – | – | 2.8 | 9 | 2 | 39
